Values of other authors, collected in patent publication US5654277A, “Peptides having thrombospondin-like activity and their therapeutic use” (W. R. Grace & Co.-Conn., priority 1995, dated 1997).

Tested on: B16-F10 murine melanoma cells
Conditions: C57BL/6 mice

Row | Substance | inhibition of lung colony formation / metastasis
1 | GRGDS | dramatically inhibited the formation of lung colonies
2 | YIGSR | dramatically inhibited B16-F10 melanoma cell metastasis
